{
  "source": "patent US20040147490A1",
  "about": "“2-Amino-propanol derivatives” (priority 2001, published 2004)",
  "origin": "cited, not measured here",
  "conditions": "comparison substance",
  "data": [
    {"smiles": "CCCCCCCCCCCCC/C=C/[C@@H](O)[C@@H](N)COP(=O)(O)O", "note": "[sphingosine-1 phosphate]", "values": [
      {"measurement": "negative chronotropic effects", "result": "negative chronotropic effects"}
    ]}
  ]
}
